The values that follow come from patent US10550080B2 (BRISTOL-MYERS SQUIBB COMPANY, priority 2016, dated 2020).

Data set [1] concerns the target NaV1.5 (Homo sapiens (Human), UniProt Q14524). The data set can be described thus: Automated electrophysiology, IonWorks Barracuda population patch clamp, NaV1.5 current (inactivated-state protocol). Particulars: HEK 293 cells expressing NaV1.5; read-out: NaV1.5 Barra IC50. It is filed as cell-based. Here is the method:
(§1) Automated Electrophysiology: Ion Works Barracuda population patch clamp (PPC). PPC measurements were performed using an IonWorks Barracuda instrument (Molecular Devices Corporation, Union City, Calif.) using either PatchPlate™ PPC substrates (Molecular Devices Corporation) with 64 apertures per well. The ability to average currents from 64 recordings from each well greatly improves data consistency and recording success rates in the measurement of NaV1.7 mediated ionic currents. Calculated leak current was digitally subtracted from the total cell NaV1.7 current for each sample point acquired.
(§2) NaV1.7 currents were elicited by a voltage clamp protocol designed to bias the NaV1.7 channels to their inactivated state as follows. From holding potential of −60 mV cells were briefly hyperpolarized to −100 mV for 1.25 sec, then stepped to −20 mV for 20 sec to inactivate the channels. This was followed by a relatively brief hyperpolarization to −100 mv for 300 ms, then a 20 msec test pulse to −20 mV to elicit the NaV1.7 current used to measure the pharmacology of all test compounds. Compounds were incubated for 600 sec between the pre- and post-compound reads. The external recording solution used was (in mM) 137 NaCl, 4 KCl, 1 MgCl2, 1.8 CaCl2, 10 Hepes, 10 glucose, pH to 7.4 with NaOH, and the internal solution used was (in mM) 100 K-gluconate, 40 KCl, 3.2 zMgCl2, 5 EGTA, 10 HEPES pH to 7.2 with KOH. The same solutions were used to record NaV1.5 currents, with the following voltage clamp protocol. NaV1.5 currents were elicited by a voltage clamp protocol designed to bias the NaV1.5 channels to their inactivated state as follows. From holding potential of −40 mV cells were briefly hyperpolarized to −100 mV for 300 ms, then stepped to −10 mV for 20 sec to inactivate the channels. This was followed by a relatively brief hyperpolarization to −100 mv for 30 ms, then a 20 msec test pulse to −10 mV to elicit the NaV1.5 current used to measure the pharmacology of all test compounds.
(§3) HEK 293 cells expressing NaV1.7 and NaV1.5 channels, were used (Essen Biosciences, Ann Arbor, Mich.). Cells were cultured in T-175 flasks and passaged every 2 to 3 days at 1:3 to 1:6 seeding density dilutions. Cells were grown to 70% to 90% confluence in a flask and removed from the incubator (37° C., 5% CO2) 1 to 3 days after plating. Growth medium was aspirated from the culture flasks. Cells were gently rinsed with 10 ml of PBS (Catalog number: 14190144, Gibco) to remove residual media. Next a total of 2 mL TrypLE (Gibco) solution was added, and the flasks containing cells were sat for 3 min at RT, after which, the cells became visibly rounded and were easily dislodged from the bottom of the flask with a few brief taps on a solid surface. A total of 8 mL of media was added to the flask to inactivate the TrypLE, and the mixture was centrifuged at 910 rpm for 4 min. The cell supernatant was decanted, and the cell pellets were resuspended in 5-6 mL of external solution followed by gentle triturations using a 10 ml pipette, and transferred to a 15 ml conical tube and immediately brought to the IW Barracuda instrument.
(§4) Peak membrane currents were analyzed with IW Barracuda software and exported to Excel for further analysis. Concentration response curve fitting was performed with BMS in-house software. IC50 values were obtained by fits of the Hill equation to the average percent inhibition data plotted versus compound concentration. […] Results are reported in Table 1 (NaV1.7 Barra IC50 in nM and NaV1.5 Barra IC50 in nM).
(In general: The patch-clamp technique gives a direct electrical read-out from membranes.)

Data set [2] addresses hNaV1.7 (Homo sapiens (Human), UniProt Q15858). Kind of data set: Ligand Binding Assay (LBA), radioligand displacement on hNaV1.7 HEK293 cell membranes. Particulars: 0.5 nM [3H] radioligand, 24 hours at room temperature; read-out: NaV1.7 LBA IC50. Here is the method:
Ligand Binding Assay (LBA): hNaV1.7 binding affinities were determined with a filtration binding assay using purified membranes from HEK293 cells stably expressing hNaV1.7. HEK293 cells from a 10-stack cell culture flask (approximately 10^10 cells) were dissociated, frozen, and stored at −80° C. To prepare membranes, the frozen cell pellet was thawed and suspended in 6 ml hypotonic lysis buffer (50 mM HEPES, 0.1% mammalian protease inhibitor cocktail). 1 ml of resuspended cells was added to an additional 6 ml of lysis buffer and homogenized with 30 strokes of a tight pestle in a glass homogenizer. Homogenate was centrifuged at 1000×g for 10 minutes at 4° C. and the resulting supernatant was further centrifuged at 38,500×g for 60 minutes at 4° C. The resulting pellet was resuspended in binding buffer (50 mM HEPES, 130 mM NaCl, 5.4 mM KCl, 0.8 mM MgCl2, 5 mM glucose, pH 7.4) and needle homogenized with a 25 gauge needle. Protein concentration was determined with a BCA protein assay. Purified membranes were aliquoted, flash frozen in an ethyl alcohol dry ice bath, and stored at −80° C. To measure displacement of a radiolabeled ligand, 50 μg of purified hNaV1.7 HEK cell membranes were incubated with test compounds (eight concentrations, in duplicate) and 0.5 nM [3H] labeled radioligand in a 96 well plate for 24 hours at room temperature on a shaker. The total binding reaction volume was 250 μl, consisting of 200 μl purified hNaV1.7 HEK cell membranes, 25 μl test compound, and 25 μl radioligand. Non-specific binding was defined by 20 μM of a reference hNaV1.7 inhibitor. Binding reactions were terminated by filtration through GF/B filters presoaked in 0.5% polyethyleneamine. Filters were washed 5 times with 2 ml each of 4′C wash buffer (50 mM Tris-HCl, pH 7.4 at 4° C.). Bound radioactivity captured on the filters was counted on a liquid scintillation counter. Specific binding, expressed as % inhibition, was fit with Graphpad Prism software to determine binding IC50 values. Results are reported in Table 1 (NaV1.7 LBA IC50 in nM).
In general terms: In a radioligand displacement assay an active substance lowers the binding of a labelled ligand.

Data set [3] has as its target NaV1.7 (Homo sapiens (Human), UniProt Q15858). Kind of data set: Automated electrophysiology, IonWorks Barracuda population patch clamp, NaV1.7 current (inactivated-state protocol). It is filed as cell-based. Particulars: HEK 293 cells expressing NaV1.7; 600 sec compound incubation; read-out: NaV1.7 Barra IC50. As for the experimental part:
as §1, §2, §3, §4

pIC50: −log10 of the molar value. Where only a bound is given, the exact number is not on record here.

Chain of NaV1.5 (Q14524 whole entry): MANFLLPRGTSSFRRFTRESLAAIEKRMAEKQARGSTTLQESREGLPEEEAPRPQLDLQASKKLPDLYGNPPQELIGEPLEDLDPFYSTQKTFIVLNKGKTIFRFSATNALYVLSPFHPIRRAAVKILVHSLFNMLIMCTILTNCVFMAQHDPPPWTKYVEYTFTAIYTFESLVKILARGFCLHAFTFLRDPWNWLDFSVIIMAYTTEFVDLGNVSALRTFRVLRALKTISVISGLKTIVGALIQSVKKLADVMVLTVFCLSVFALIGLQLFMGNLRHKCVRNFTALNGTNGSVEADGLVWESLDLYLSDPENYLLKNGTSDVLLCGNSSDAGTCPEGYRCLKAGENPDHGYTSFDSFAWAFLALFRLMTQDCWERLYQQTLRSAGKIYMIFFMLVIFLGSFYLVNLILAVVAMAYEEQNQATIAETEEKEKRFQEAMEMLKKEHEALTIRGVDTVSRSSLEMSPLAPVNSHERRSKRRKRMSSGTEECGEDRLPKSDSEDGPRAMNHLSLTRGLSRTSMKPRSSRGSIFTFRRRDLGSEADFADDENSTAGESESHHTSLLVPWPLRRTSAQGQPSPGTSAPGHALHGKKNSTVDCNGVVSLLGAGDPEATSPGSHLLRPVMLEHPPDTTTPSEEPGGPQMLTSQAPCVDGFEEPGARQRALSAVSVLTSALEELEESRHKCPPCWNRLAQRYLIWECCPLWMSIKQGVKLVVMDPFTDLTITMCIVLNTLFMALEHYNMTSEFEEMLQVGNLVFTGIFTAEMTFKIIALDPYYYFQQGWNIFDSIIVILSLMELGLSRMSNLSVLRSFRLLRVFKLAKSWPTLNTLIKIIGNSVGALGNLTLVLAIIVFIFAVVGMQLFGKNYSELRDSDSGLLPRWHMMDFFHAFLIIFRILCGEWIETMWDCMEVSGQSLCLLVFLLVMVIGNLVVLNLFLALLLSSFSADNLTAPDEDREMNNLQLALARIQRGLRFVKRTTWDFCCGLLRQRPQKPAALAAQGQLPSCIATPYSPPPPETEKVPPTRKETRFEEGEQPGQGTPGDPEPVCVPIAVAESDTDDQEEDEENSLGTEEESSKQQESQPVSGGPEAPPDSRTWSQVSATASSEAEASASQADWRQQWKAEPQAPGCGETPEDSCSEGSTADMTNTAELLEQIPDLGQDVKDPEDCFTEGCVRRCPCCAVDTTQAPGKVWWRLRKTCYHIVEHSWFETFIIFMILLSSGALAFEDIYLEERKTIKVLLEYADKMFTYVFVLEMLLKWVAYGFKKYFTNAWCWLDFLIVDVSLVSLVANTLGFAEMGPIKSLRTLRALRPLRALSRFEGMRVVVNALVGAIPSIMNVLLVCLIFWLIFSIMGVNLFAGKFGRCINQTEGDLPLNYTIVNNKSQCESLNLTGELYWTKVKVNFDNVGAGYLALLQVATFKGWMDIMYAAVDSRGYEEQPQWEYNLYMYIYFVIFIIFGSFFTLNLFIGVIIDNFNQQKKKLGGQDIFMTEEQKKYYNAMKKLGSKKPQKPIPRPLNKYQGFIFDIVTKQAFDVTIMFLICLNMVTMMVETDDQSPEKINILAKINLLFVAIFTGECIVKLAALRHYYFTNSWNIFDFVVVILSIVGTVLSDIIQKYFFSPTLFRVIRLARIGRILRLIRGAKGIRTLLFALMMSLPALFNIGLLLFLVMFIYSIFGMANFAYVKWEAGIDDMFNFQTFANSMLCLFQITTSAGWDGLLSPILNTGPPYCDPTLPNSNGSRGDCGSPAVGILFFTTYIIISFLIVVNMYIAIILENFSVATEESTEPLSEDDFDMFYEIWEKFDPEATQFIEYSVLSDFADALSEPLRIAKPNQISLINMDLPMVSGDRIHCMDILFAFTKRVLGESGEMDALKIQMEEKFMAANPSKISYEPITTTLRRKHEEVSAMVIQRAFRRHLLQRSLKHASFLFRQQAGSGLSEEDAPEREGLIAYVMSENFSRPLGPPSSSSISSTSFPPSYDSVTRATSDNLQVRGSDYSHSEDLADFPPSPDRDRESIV
Chain of hNaV1.7 (Q15858 whole entry): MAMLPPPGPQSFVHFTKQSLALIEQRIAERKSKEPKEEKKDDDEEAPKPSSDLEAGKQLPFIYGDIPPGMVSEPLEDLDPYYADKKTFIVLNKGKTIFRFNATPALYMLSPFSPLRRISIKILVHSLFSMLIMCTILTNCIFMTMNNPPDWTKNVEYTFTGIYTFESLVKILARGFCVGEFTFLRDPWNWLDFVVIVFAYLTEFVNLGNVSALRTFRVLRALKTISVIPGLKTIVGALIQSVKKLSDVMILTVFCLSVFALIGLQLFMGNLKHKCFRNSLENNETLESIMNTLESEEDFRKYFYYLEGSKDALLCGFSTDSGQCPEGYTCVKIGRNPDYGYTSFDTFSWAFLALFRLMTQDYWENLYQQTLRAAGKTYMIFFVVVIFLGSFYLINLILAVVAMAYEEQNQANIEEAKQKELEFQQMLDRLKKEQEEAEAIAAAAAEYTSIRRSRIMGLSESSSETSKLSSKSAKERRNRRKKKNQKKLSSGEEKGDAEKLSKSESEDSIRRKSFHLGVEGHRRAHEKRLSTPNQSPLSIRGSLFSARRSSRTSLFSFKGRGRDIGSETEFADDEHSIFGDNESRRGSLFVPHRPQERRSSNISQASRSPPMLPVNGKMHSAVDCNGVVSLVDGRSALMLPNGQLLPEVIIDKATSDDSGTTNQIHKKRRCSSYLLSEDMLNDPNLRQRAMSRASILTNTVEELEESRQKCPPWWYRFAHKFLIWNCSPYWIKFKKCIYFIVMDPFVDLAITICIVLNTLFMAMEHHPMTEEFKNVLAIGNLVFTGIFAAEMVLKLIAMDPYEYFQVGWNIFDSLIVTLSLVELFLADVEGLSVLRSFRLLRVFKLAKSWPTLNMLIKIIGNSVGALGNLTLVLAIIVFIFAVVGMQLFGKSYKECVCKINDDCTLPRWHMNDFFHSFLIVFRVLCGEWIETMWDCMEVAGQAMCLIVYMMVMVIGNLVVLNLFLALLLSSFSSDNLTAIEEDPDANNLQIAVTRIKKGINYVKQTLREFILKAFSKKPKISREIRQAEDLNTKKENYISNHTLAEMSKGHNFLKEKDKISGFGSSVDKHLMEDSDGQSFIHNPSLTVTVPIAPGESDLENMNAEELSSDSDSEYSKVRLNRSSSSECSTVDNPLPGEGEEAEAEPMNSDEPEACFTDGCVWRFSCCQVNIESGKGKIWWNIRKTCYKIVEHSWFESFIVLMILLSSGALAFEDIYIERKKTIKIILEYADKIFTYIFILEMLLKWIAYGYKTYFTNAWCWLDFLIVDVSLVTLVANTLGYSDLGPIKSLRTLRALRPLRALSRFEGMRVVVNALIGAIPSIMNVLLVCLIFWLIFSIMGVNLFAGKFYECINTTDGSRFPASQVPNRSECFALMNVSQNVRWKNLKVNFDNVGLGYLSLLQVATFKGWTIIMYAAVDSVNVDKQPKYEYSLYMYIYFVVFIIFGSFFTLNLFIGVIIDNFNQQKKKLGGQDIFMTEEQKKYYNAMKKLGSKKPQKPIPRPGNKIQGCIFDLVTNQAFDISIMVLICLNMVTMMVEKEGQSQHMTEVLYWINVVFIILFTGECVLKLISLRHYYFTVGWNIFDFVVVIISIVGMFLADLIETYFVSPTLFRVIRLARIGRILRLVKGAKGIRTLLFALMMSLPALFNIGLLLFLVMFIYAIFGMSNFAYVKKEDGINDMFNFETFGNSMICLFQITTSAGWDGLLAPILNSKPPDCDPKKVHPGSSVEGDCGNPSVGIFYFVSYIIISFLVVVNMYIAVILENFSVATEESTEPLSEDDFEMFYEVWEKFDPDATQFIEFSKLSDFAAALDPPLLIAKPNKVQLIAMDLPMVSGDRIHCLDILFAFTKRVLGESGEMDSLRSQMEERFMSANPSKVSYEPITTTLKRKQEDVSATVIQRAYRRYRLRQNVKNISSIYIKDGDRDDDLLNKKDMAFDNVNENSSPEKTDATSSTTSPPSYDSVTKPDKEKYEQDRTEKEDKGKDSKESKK
Chain of NaV1.7 (Q15858 whole entry): as above

The term pIC50 denotes the negative decadic logarithm of the IC50, by convention in mol/L. With `CCS(=O)(=O)NC(=O)c1ccc2c(-c3cnc(OCC(C)C)c(Cl)c3)cn(C)c2c1` [Example 36, 3-(5-Chloro-6-isobutoxypyridin-3-yl)-N-(ethylsulfonyl)-1-methyl-1H-indole-6-carboxamide], the negative-log IC50 (pIC50) in data set [1] is 5.25; in data set [2], 7.42; in data set [3], 6.81.
Take `CC(C)COc1ccc(-c2cn(C)c3cc(C(=O)NS(C)(=O)=O)c(F)cc23)cn1` [Example 44, 5-Fluoro-3-(6-isobutoxypyridin-3-yl)-1-methyl-N-(methylsulfonyl)-1H-indole-6-carboxamide]: the negative logarithm of the IC50 (pIC50) in data set [1] was 4.73; in data set [2] it was 7.07; in data set [3] it was 6.98.
For the compound `CC(C)COc1ncc(-c2nn(C)c3cc(C(=O)NS(C)(=O)=O)ccc23)cc1Cl` [Example 39, 3-(5-Chloro-6-isobutoxypyridin-3-yl)-1-methyl-N-(methylsulfonyl)-1H-indazole-6-carboxamide], the pIC50 was 5.19 in data set [1], 7.17 in data set [2] and 7.18 in data set [3].
In the same order, the values of `Cn1cc(-c2ccc(C(F)(F)F)cc2)c2ccc(C(=O)NS(C)(=O)=O)cc21` [Example 1, 1-Methyl-N-(methylsulfonyl)-3-(4-(trifluoromethyl)phenyl)-1H-indole-6-carboxamide] are 4.71, 6.37 and 7.07.
In the same order, the values of `Cn1cc(-c2ccc(C(F)(F)F)cc2)c2ccc(C(=O)NS(=O)(=O)C3CC3)cc21` [Example 18, N-(cyclopropylsulfonyl)-1-methyl-3-(4-(trifluoromethyl)phenyl)-1H-indole-6-carboxamide] are 5.06, 7.11 and 6.96.
In the same order, the values of `Cn1cc(-c2ccc(C(F)(F)F)cc2)c2cc(F)c(C(=O)NS(=O)(=O)C3CC3)cc21` [Example 47] are 5.42, 7.41 and 7.80.
As for `CC(C)COc1ncc(-c2cn(C)c3cc(C(=O)NS(C)(=O)=O)c(F)cc23)cc1Cl` [Example 42, 3-(5-Chloro-6-isobutoxypyridin-3-yl)-5-fluoro-1-methyl-N-(methylsulfonyl)-1H-indole-6-carboxamide], the figures for the negative logarithm of the IC50 (pIC50) in data set [1], in data set [2] and in data set [3] were 5.14, 7.96 and 6.28, respectively.
With `CC(C)COc1ccc(-c2cn(C)c3cc(C(=O)NS(=O)(=O)C4CC4)c(F)cc23)cn1` [Example 45, N-(Cyclopropylsulfonyl)-5-fluoro-3-(6-isobutoxypyridin-3-yl)-1-methyl-1H-indole-6-carboxamide], the pIC50 is 5.43 in data set [1], 7.59 in data set [2] and 7.23 in data set [3].
The like results for `Cc1cccc(-c2cn(C)c3cc(C(=O)NS(C)(=O)=O)ccc23)c1` [Example 15, 1-Methyl-N-(methylsulfonyl)-3-(m-tolyl)-1H-indole-6-carboxamide] were, in that order, below 4.52, 6.03 and 6.43.
The like results for `Cn1cc(-c2ccccc2)c2ccc(C(=O)NS(C)(=O)=O)cc21` [Example 5, 1-Methyl-N-(methylsulfonyl)-3-phenyl-1H-indole-6-carboxamide] were, in that order, below 4.52, 5.14 and 6.13.
For the compound `Cc1ccc(-c2cn(C)c3cc(C(=O)NS(C)(=O)=O)ccc23)cc1` [Example 10, 1-Methyl-N-(methylsulfonyl)-3-(p-tolyl)-1H-indole-6-carboxamide], the pIC50 in data set [1] is below 4.52; in data set [2], 5.99; in data set [3] it was 6.13.
In the same order, the values of `CC(C)COc1ncc(-c2cn(C)c3cc(C(=O)NS(=O)(=O)C(C)C)ccc23)cc1Cl` [Example 37, 3-(5-Chloro-6-isobutoxypyridin-3-yl)-N-(isopropylsulfonyl)-1-methyl-1H-indole-6-carboxamide] are 4.85, 6.68 and 6.34.
The like results for `CC(C)COc1ncc(-c2cn(C)c3cc(C(=O)NS(=O)(=O)C4CC4)c(F)cc23)cc1Cl` [Example 43, 3-(5-Chloro-6-isobutoxypyridin-3-yl)-N-(cyclopropylsulfonyl)-5-fluoro-1-methyl-1H-indole-6-carboxamide] were, in that order, 5.31, 8.47 and 6.51.
Consider `Cn1cc(-c2ccc(C(F)(F)F)cc2)c2ccc(C(=O)NS(=O)(=O)c3ccc(F)c(F)c3)cc21` [Example 21, N-((3,4-difluorophenyl)sulfonyl)-1-methyl-3-(4-(trifluoromethyl)phenyl)-1H-indole-6-carboxamide], for which the figures for the pIC50 in data set [1], in data set [2] and in data set [3] were 4.74, below 4.52 and below 4.52, respectively.
With `CC(C)COc1ncc(-c2c3ccc(C(=O)NS(C)(=O)=O)cc3nn2C)cc1Cl` [Example 40, 3-(5-Chloro-6-isobutoxypyridin-3-yl)-2-methyl-N-(methylsulfonyl)-2H-indazole-6-carboxamide], the negative logarithm of the IC50 (pIC50) in data set [1] was 4.78; in data set [2] it was 5.70; in data set [3], 6.10.
In the case of `CC(C)COc1ncc(-c2c3ccc(C(=O)NS(=O)(=O)C4CC4)cc3nn2C)cc1Cl` [Example 41, 3-(5-Chloro-6-isobutoxypyridin-3-yl)-N-(cyclopropylsulfonyl)-2-methyl-2H-indazole-6-carboxamide], the values for the pIC50 in data set [1], in data set [2] and in data set [3] were 4.95, 6.17 and 6.71, respectively.
For the compound `CC(C)Cc1ccc(-c2cn(C)c3cc(C(=O)NS(C)(=O)=O)ccc23)cc1` [Example 12, 3-(4-Isobutylphenyl)-1-methyl-N-(methylsulfonyl)-1H-indole-6-carboxamide], the values for the pIC50 in data set [1], in data set [2] and in data set [3] were below 4.52, 6.50 and 6.44, respectively.
`Cn1cc(-c2ccc(C(F)(F)F)cc2)c2cc(F)c(C(=O)NS(C)(=O)=O)cc21` [Example 46, 5-Fluoro-1-methyl-N-(methylsulfonyl)-3-(4-(trifluoromethyl)phenyl)-1H-indole-6-carboxamide]: the figures for the pIC50 in data set [1], in data set [2] and in data set [3] were below 4.52, 7.08 and 7.31, respectively.
